Assay results as given in US9212130B2, “Heterocyclic derivative and pharmaceutical composition comprising the same” (SHIONOGI & CO., LTD., priority 2010, dated 2015).

Experiments:
Format in all cases: in vitro ADME
CYP2C19 = CYP2C19 (Homo sapiens (Human), UniProt P33261); experiment: CYP inhibition test, mephenyloin 4'-hydroxylation; conditions: pooled human hepatic microsome; 50 μmol/L S-mephenitoin; given as 'five kinds'
Method: (§1) Using commercially available pooled human hepatic microsome, and employing, as markers, 7-ethoxyresorufin O-deethylation (CYP1A2), tolbutamide methyl-hydroxylation (CYP2C9), mephenyloin 4′-hydroxylation (CYP2C19), dextromethorphan O-demethylation (CYP2D6), and terfenedine hydroxylation as typical substrate metabolism reactions of human main five ([…] enzyme forms (CYP1A2, 2C9, 2C19, 2D6, 3A4), an inhibitory degree of each metabolite production amount by a test compound was assessed.
(§2) The reaction conditions were as follows: substrate, 0.5 μmol/L ethoxyresorufin (CYP1A2), 100 μmol/L tolbutamide (CYP2C9), 50 μmol/L S-mephenitoin (CYP2C19), 5 μmol/L dextromethorphan (CYP2D6), 1 μmol/L terfenedine (CYP3A4); reaction time, 15 minutes; reaction temperature, 37° C.; enzyme, pooled human hepatic microsome 0.2 mg protein/mL; test drug concentration, 1.0. 5.0, 10, 20 μmol/L (four points).
(§3) Each five kinds of substrates, human hepatic microsome, or a test drug in 50 mmol/L Hepes buffer as a reaction solution was added to a 96-well plate at the composition as described above. NADPH, as a cofactor was added to initiate metabolism reactions as markers and, after the incubation at 37° C. for 15 minutes, a methanol/acetonitrile=1/1 (v/v) solution was added to stop the reaction. After the centrifugation at 3000 rpm for 15 minutes, resorufin (CYP1A2 metabolite) in the supernatant was quantified by a fluorescent multilabel counter and tributamide hydroxide (CYP2CP metabolite), mephenyloin 4′ hydroxide (CYP2C19 metabolite), […], and terfenadine alcohol (CYP3A4 metabolite) were quantified by LC/MS/MS.
(§4) Addition of only DMSO being a solvent dissolving a drug to a reaction system was adopted as a control (100%), remaining activity (%) was calculated at each concentration of a test drug added as the solution and IC50 was calculated by reverse presumption by a logistic model using a concentration and an inhibition rate.

CYP3A4 = CYP3A4 (Homo sapiens (Human), UniProt P08684); experiment: CYP3A4 fluorescent MBI test; conditions: pre-reaction time 0 or 30 minutes; substrate 7-BFC; CYP3A4 expressed in Escherichia coli
Sequence of CYP3A4 (P08684 whole entry): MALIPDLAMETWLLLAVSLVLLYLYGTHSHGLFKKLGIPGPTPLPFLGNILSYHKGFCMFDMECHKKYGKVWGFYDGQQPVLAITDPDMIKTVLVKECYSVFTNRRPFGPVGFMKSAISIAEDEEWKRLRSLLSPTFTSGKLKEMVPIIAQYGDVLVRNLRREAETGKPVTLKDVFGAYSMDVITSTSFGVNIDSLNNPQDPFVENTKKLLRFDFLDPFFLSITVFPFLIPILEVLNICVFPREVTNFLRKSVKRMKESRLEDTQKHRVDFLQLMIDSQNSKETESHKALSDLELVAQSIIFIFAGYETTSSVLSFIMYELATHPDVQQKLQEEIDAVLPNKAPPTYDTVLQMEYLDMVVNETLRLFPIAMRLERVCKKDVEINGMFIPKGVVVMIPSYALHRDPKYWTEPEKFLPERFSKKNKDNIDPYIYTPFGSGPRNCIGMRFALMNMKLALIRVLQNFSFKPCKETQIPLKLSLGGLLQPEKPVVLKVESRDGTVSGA
Method: The CYP3A4 fluorescent MBI test is a test of investigating enhancement of CYP3A4 inhibition of a compound by a metabolism reaction, and the test is performed using, as CYP3A4 enzyme expressed in Escherichia coli and employing, as an index, a reaction in which 7-benzyloxytrifluoromethylchmarin (BFC) is debenzylated by the CYP3A4 enzyme to produce a metabolite, 7-hydroxytrifluoromethylchmarin (HFC) emitting fluorescent light.
The reaction conditions were as follows: substrate, 5.6 μmol/L 7-BFC; pre-reaction time, 0 or 30 minutes; reaction time, 15 minutes; reaction temperature, 25° C.
An enzyme in a K-Pi buffer (pH 7.4) and a test drug solution as a pre-reaction solution were added to a 96-well plate at the composition of the pre-reaction, a part of it was transferred to another 96-well plate so that it was 1/10 diluted by a substrate in a K-Pi buffer, NADPH as a co-factor was added to initiate a reaction as an index (without preincubation) and, after a predetermined time of a reaction, acetonitrile: 0.5 mol/L Tris (trishydroxyaminomethane)=4:1 was added to stop the reaction. In addition, NADPH was added to a remaining preincubation solution to initiate a preincubation (with preincubation) and, after a predetermined time of a preincubation, a part was transferred to another plate so that it was 1/10 diluted with a substrate and a K-Pi buffer to initiate a reaction as an index, After a predetermined time of a reaction, acetonitrile: 0.5 mol/L Tris (trishydroxyaminomethane)=4:1 was added to stop the reaction. For the plate on which each index reaction had been performed, a fluorescent value of 7-HFC which is a metabolite was measured with a fluorescent plate reader. (Ex=420 nm, Em=535 nm).
Addition of only DMSO which is a solvent dissolving a drug to a reaction system was adopted as a control (100%), remaining activity (%) was calculated at each concentration of a test drug added as the solution, and IC50 was calculated by reverse-presumption by a logistic model using a concentration and an inhibition rate. When a difference between IC50 values is 5 or more, this was defined as (+) and, when the difference is 3 μmol/L or less, this was defined as (−).

CYP2D6 = CYP2D6 (Homo sapiens (Human), UniProt P10635); experiment: CYP inhibition test, dextromethorphan O-demethylation; conditions: pooled human hepatic microsome; 5 μmol/L dextromethorphan; given as 'five kinds'
Sequence of CYP2D6 (P10635 whole entry): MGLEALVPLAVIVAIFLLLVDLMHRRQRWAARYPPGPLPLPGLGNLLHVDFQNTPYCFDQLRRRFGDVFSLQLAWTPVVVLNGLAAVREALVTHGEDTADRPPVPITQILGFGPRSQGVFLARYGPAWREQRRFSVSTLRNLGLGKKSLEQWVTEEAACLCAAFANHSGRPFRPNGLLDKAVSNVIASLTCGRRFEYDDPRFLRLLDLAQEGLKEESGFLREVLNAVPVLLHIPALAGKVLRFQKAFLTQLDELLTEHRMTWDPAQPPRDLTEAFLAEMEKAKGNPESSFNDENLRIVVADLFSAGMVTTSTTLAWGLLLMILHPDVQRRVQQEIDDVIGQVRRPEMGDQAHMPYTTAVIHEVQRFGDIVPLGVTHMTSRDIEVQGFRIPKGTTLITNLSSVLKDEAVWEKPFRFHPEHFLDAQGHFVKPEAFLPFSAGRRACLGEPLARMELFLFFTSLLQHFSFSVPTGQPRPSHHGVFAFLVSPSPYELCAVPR
Method: as §1, §2, §3, §4

Sequence of CYP2C19 (P33261 whole entry): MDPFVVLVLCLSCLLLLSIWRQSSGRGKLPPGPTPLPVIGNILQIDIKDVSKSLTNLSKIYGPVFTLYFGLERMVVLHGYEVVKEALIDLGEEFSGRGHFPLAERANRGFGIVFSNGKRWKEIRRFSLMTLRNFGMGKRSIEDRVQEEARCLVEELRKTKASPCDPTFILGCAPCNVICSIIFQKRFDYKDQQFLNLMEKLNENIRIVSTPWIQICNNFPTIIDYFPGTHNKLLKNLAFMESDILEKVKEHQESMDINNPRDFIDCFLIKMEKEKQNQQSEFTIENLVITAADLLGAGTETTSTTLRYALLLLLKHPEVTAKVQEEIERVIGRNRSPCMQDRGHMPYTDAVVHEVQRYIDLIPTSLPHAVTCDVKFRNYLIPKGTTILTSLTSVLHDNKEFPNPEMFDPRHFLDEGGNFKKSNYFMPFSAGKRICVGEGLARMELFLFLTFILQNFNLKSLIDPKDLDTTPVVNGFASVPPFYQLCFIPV

Compound: CC(C)Oc1ccc(Nc2cc(=O)n(C[C@H](C)C(=O)O)c(=O)n2Cc2ccc(Cl)cc2)cc1Cl [I-100]
- IC50 (CYP2C19): > 20 µM
- IC50 difference (CYP3A4): < 3 µM
- IC50 (CYP2D6): > 20 µM
